Structures can show the parent of a compound that is named as a salt.
Assays:
[1] = thermal stability test at 60° C. and 90% relative humidity; assay type: physicochemical; settings: for change of polymorph, purity and appearance: 15 days at 60° C. and 90% relative humidity, sodium salt
Description: The feature of the crystalline form M of Pantoprazole Sodium compound provided in the present invention is free of any crystalline solvents, and the melting point of the novel crystalline form is 192±2° C., which is higher than those of traditional crystalline forms. […] The product of the novel crystalline form has higher bulk density and fluidity with an appearance of stubby rod. The crystalline product especially has greater advantages in the preparation of formulations of Pantoprazole Sodium tablets, powder and subsequent other forms of such processes, due to the increased stability, fluidity and bulk density. At the same time, the product has better qualities in the process of filtering, washing, drying, packaging and storage due to the improvement of the properties described above.
1 g of dried solid Pantoprazole Sodium was added to 20 mL of n-butanol and n-pentanol (1:1, in volume) to form a suspension, and then 0.005 g BHA was added to the suspension under stirring, the suspension was heated to […] to make all the solid dissolved; and 60 mL of cyclohexane was dropwise added to the solution at a speed of 0.12 ml/min under constant temperature to obtain a suspension; meanwhile, a ultrasonic wave with a frequency of 20 KHz, a power of 50 W was applied, followed by cooling the solution down to 0° C. at a rate of 0.2° C./min, continuing to stir for 1 h, vacuum filtrating the crystal slurry, and the residue was dried at 50° C. and under normal pressure for 48 h to constant weight, to obtain crystalline form M of Pantoprazole Sodium product. XRD pattern of the novel crystalline form M was shown in FIG. 1, comprising characteristic peaks (expressed in degrees 2θ) at 5.62, 11.62, 12.16, 13.80, 17.18, 18.80, 21.72, 23.44, 25.16 and 26.88. DSC thermogram of the novel crystalline form M was shown in FIG. 2, comprising an endothermic peak at 192.61° C. […] The product of the novel crystalline form M had higher bulk density and fluidity with an appearance of stubby rod, as shown in FIG. 3.

[2] = storage stability at normal temperature and air humidity; assay type: physicochemical; settings: 100 days stored at normal temperature and air humidity
Description: XRD pattern of the novel crystalline form M was shown in FIG. 1, comprising characteristic peaks (expressed in degrees 2θ) at 5.62, 11.62, 12.16, 13.80, 17.18, 18.80, 21.72, 23.44, 25.16 and 26.88. DSC thermogram of the novel crystalline form M was shown in FIG. 2, comprising an endothermic peak at 192.61° C. […] The product of the novel crystalline form M had higher bulk density and fluidity with an appearance of stubby rod, as shown in FIG. 3.

[3] = acute toxicity test in Beagle dogs; assay type: in vivo; settings: dog, in vivo, doses 44-225 mg/kg
Description: (§1) 15 Beagle dogs were used for acute toxicity test, and given different doses of Pantoprazole Sodium of 44, 67, 100, 150 and 225 mg/kg. 3 animals belongs to each group and toxic reactions were observed after administration in each group. […] The Pantoprazole Sodium was divided into 5, 3 and […] groups by high, medium and low doses. The test period is 13 weeks. 80 healthy Wistar rats with males and females half and half were randomly divided into four groups, and were gavaged once a day regularly, drug withdrawal 2 weeks after administration 13 weeks, and then taken conventional toxicology observations and index detection.

Beagle dogs = assay: acute toxicity test in Beagle dogs; assay type: in vivo; settings: at the dose of 150 mg/kg
Description: as §1

Wistar rats = assay: long-term toxicity test in rats (13 weeks)
Description: as §1

ICR mice = settings: intravenous injection
Description: (§2) The median lethal dose method was taken for the acute toxicity test in mice. 50 ICR mice met experimental requirements were selected and randomly divided into 5 dose groups by weight, 10 animals each group with males and females half and half. […] Toxic reactions were observed during administration and after administration in mice.

in vivo = settings: both, ICR, mouse, iv
Description: as §2

[4] = cited from earlier work
[5] = toxic reaction tests (overall comparison); assay type: in vivo; settings: versus existing Pantoprazole Sodium

COc1ccnc(C[S+]([O-])c2nc3cc(OC(F)F)ccc3[n]2[Na+])c1OC (stereo not drawn) [Example 1, 5-difluoromethoxy-2-[(3,4-dimethoxy-2-pyridinyl)methyl]sulfinyl-1H-benzimidazole sodium salt]
change of polymorph, purity and appearance [1]: did not make any change | change of polymorph, purity and color [2]: did not make any change | LD50 [3]: 70 mg/kg | toxic reactions (Beagle dogs): tremors, increased salivation, limp, vomiting, and death after 20 min | toxicology observations and indexes, medium- and low-dose groups (Wistar rats; Wistar rats, gavage once a day, 13 weeks, 3 and 1 g/kg): no significant difference occurred | dose of nontoxic response (Wistar rats; both, Wistar, rat, in vivo, 13 weeks): 3000 mg/kg | histopathological examination (Wistar rats; rat, in vivo): liver cell degeneration occurred in one rat | indexes after drug withdrawal (Wistar rats; rat, in vivo): No obvious abnormality occurred | toxic reactions during administration (ICR mice): struggling, shortness of breath, limbs limp, difficulty breathing, and severe to death | LD50 (in vivo): 392 mg/kg

COc1ccnc(C[S+]([O-])c2nc3cc(OC(F)F)ccc3[n]2[Na+])c1OC (stereo not drawn) [Example 2, 5-difluoromethoxy-2-[(3,4-dimethoxy-2-pyridinyl)methyl]sulfinyl-1H-benzimidazole sodium salt]
change of polymorph, purity and appearance [1]: did not make any change | change of polymorph, purity and color [2]: did not make any change

COc1ccnc(C[S+]([O-])c2nc3cc(OC(F)F)ccc3[n]2[Na+])c1OC (stereo not drawn) [Example 3, 5-difluoromethoxy-2-[(3,4-dimethoxy-2-pyridinyl)methyl]sulfinyl-1H-benzimidazole sodium salt]
change of polymorph, purity and appearance [1]: did not make any change | change of polymorph, purity and color [2]: did not make any change

COc1ccnc(C[S+]([O-])c2nc3cc(OC(F)F)ccc3[n]2[Na+])c1OC (stereo not drawn) [Example 4, 5-difluoromethoxy-2-[(3,4-dimethoxy-2-pyridinyl)methyl]sulfinyl-1H-benzimidazole sodium salt]
change of polymorph, purity and appearance [1]: did not make any change | change of polymorph, purity and color [2]: did not make any change

COc1ccnc(C[S+]([O-])c2nc3cc(OC(F)F)ccc3[n]2[Na+])c1OC (stereo not drawn) [Pantoprazole Sodium, 5-difluoromethoxy-2-[(3,4-dimethoxy-2-pyridinyl)methyl]sulfinyl-1H-benzimidazole sodium salt]
solubility in trichloromethane or ethyl ether ([4]; trichloromethane or ethyl ether): almost insoluble | solubility in water or methanol ([4]; water or methanol): soluble

COc1ccnc(C[S+]([O-])c2nc3cc(OC(F)F)ccc3[n]2[Na+])c1OC (stereo not drawn) [crystalline form M, 5-difluoromethoxy-2-[(3,4-dimethoxy-2-pyridinyl)methyl]sulfinyl-1H-benzimidazole sodium salt]
change of polymorph, purity and appearance [1]: do not changed | thermal stability ([1]; conclusion from 15 days at 60° C. and 90% relative humidity): better thermal stability | toxicity compared with existing Pantoprazole Sodium [5]: decreased toxicity

Reference: patent US20170197937A1, “NEW CRYSTAL FORM OF PANTOPRAZOLE SODIUM COMPOUND AND PREPARATION METHOD THEREFOR” (priority 2015, published 2017)
